Reference: PubChem BioAssay (NCI)
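All cell lines were grown in 96-well plates and treated with compound for 48 hours. Definition used: TGI = concentration required for complete inhibition of growth.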

Key:
Test in all cases: NCI-60 cell line screen, 48 h
[1] = system: SNB-19 CNS
[2] = system: SK-MEL-28 melanoma
[3] = system: CAKI-1 renal
[4] = system: SF-295 CNS
[5] = system: COLO 205 colon
[6] = system: MALME-3M melanoma
[7] = system: CCRF-CEM leukemia
[8] = system: RXF 393 renal
[9] = system: BT-549 breast
[10] = system: DU-145 prostate
[11] = system: KM12 colon
[12] = system: SK-OV-3 ovarian
[13] = system: NCI-H23 lung
[14] = system: PC-3 prostate
[15] = system: A549 NSCLC
[16] = system: HOP-62 NSCLC
[17] = system: OVCAR-3 ovarian
[18] = system: SW-620 colon
[19] = system: HT29 colon
[20] = system: A498 renal
[21] = system: K-562 leukemia
[22] = system: 786-0 renal
[23] = system: SK-MEL-5 melanoma
[24] = system: HOP-92 NSCLC
[25] = system: SF-268 CNS
[26] = system: MDA-N
[27] = system: NCI-H522 lung
[28] = system: RPMI-8226 leukemia
[29] = system: OVCAR-8 ovarian
[30] = system: MDA-MB-435
[31] = system: LOX IMVI melanoma
[32] = system: UO-31 renal
[33] = system: UACC-62 melanoma
[34] = system: SR leukemia
[35] = system: ACHN renal
[36] = system: HCT-15 colon
[37] = system: NCI-H460 lung
[38] = system: U251 CNS
[39] = system: MOLT-4 leukemia
[40] = system: HS 578T breast
[41] = system: SK-MEL-2 melanoma
[42] = system: HL-60(TB) leukemia
[43] = system: HCT-116 colon
[44] = system: IGROV1 ovarian
[45] = system: MDA-MB-231 breast
[46] = system: TK-10 renal
[47] = system: EKVX NSCLC
[48] = system: OVCAR-4 ovarian
[49] = system: UACC-257 melanoma
[50] = system: M14 melanoma
[51] = system: SF-539 CNS
[52] = system: MCF7 breast
[53] = system: OVCAR-5 ovarian
[54] = system: SN12C renal
[55] = system: T-47D breast
[56] = system: NCI/ADR-RES ovarian

## CN(C)CCCNC(=O)c1cc2/c(=C\c3ccc(N(C)C)cc3)c3ccccc3n2[n+]1C
[1]
  TGI: > 100 µM
[2]
  TGI: 74.8 µM
[3]
  TGI: > 100 µM
[4]
  TGI: > 100 µM
[5]
  TGI: 21.3 µM
[6]
  TGI: 38.4 µM
[7]
  TGI: 90.1 µM
[8]
  TGI: > 100 µM
[9]
  TGI: > 100 µM
[10]
  TGI: > 100 µM
[11]
  TGI: 61.6 µM
[12]
  TGI: > 100 µM
[13]
  TGI: 59.5 µM
[14]
  TGI: > 100 µM
[15]
  TGI: > 100 µM
[16]
  TGI: > 100 µM
[17]
  TGI: 52.2 µM
[18]
  TGI: > 100 µM
[19]
  TGI: 82.8 µM
[20]
  TGI: > 100 µM
[21]
  TGI: 35.4 µM
[22]
  TGI: > 100 µM
[23]
  TGI: 31.3 µM
[24]
  TGI: 56.4 µM
[25]
  TGI: 90.9 µM
[26]
  TGI: 78.4 µM
[27]
  TGI: 10.9 µM
[28]
  TGI: 53.6 µM
[29]
  TGI: > 100 µM
[30]
  TGI: 58.7 µM
[31]
  TGI: > 100 µM
[32]
  TGI: > 100 µM
[33]
  TGI: 34 µM
[34]
  TGI: 54.1 µM
[35]
  TGI: > 100 µM
[36]
  TGI: > 100 µM
[37]
  TGI: > 100 µM
[38]
  TGI: 69.2 µM
[39]
  TGI: > 100 µM
[40]
  TGI: > 100 µM
[41]
  TGI: 35.6 µM
[42]
  TGI: 46 µM
[43]
  TGI: 64.2 µM
[44]
  TGI: 37.1 µM
[45]
  TGI: 64.4 µM
[46]
  TGI: > 100 µM
[47]
  TGI: 39.7 µM
[48]
  TGI: 21.4 µM
[49]
  TGI: 51.3 µM
[50]
  TGI: 39 µM
[51]
  TGI: 39.4 µM
[52]
  TGI: 50.7 µM
[53]
  TGI: > 100 µM
[54]
  TGI: 13.5 µM
[55]
  TGI: 15.9 µM
[56]
  TGI: > 100 µM
